Data reported in patent US6548494B1, “Tricyclic inhibitors of poly(ADP-ribose) polymerases” (Agouron Pharmaceuticals, Inc., priority 1999, dated 2003).
Values joined by “and” are separate entries in the source; they are usually repeats but may differ in a detail not shown here. Equal values may be shown once. Read-outs that look alike come from different tables or passages of the source.

How the values were obtained:
[1] = biological target: purified PARP protein (Homo sapiens, UniProt P09874); test: PARP enzyme inhibition assay; type: biochemical
[2] = tested on: A549 cells; test: Cytotoxicity potentiation assay; type: cell-based; conditions: test compound 0.4 μM, ratio of IC50 of topotecan alone to IC50 of topotecan with test compound
Protocol: A549 cells (ATCC, Rockville, Md.) were seeded into 96-well cell culture plates (Falcon brand, Fisher Scientific, Pittsburgh, Pa.) 16 to 24 hours before experimental manipulation. Cells were then treated with a test compound (or a combination of test compounds where indicated) each at a concentration of 0.4 μM for either 3 days or 5 days. At the end of treatments, relative cell number was determined either by MTT assay or SRB assay. For the MTT assay, 0.2 μg/μl of MTT (3-(4,5-dimethylthiazol-2-yl)-2,5-diphenyltetrazolium bromide) (Sigma Chemical Co., St. Louis, Mo.) was added to each well of a plate, and the plate was incubated in a cell-culture incubator for 4 hours. Metabolized MTT in each well was solubilized in 150 μl of DMSO (Sigma Chemical Co.) with shaking and quantified with a Wallac 1420 Victor plate reader (EG&G Wallac, Gaithersburg, Md.) at 540 nm. For the SRB assay, cells were fixed with 10% trichloroacetic acid (Sigma Chemical Co) for an hour at 4° C. After extensively washing, fixed cells were stained for 30 minutes with 0.4% sulforhodamine B (SRB, Sigma Chemical Co.) in 1% acetic acid (Sigma Chemical Co). Unbound SRB was washed away with 1% acetic acid. Then the cultures were air-dried, and dye was solubilized with 10 mM unbuffered Tris base (Sigma Chemical Co) with shaking. The bound dye was measured photometrically with the Wallac Victor plate reader at 515 nm. The ratio of the OD (optical density) value of a compound-treated culture to the OD value of a mock-treated culture, expressed in percentage, was used to quantify the cytotoxicity of a compound. […] To quantify the potentiation of the cytotoxicity of topotecan or temozolomide by test compounds, a dimensionless parameter PF50 is used and is defined as the ratio of the IC50 of topotecan or temozolomide alone to the IC50 of topotecan or temozolomide in combination with a test compound. For the compounds of the invention, PF50 values were determined by testing with topotecan.

[3] = 20 nM purified PARP (5 nM for tight-binding inhibitors), 500 μM NAD+, 25° C., several values in one cell = repeat determinations, read-out: Inhibition Constant Ki

Chain of purified PARP protein (P09874 whole entry): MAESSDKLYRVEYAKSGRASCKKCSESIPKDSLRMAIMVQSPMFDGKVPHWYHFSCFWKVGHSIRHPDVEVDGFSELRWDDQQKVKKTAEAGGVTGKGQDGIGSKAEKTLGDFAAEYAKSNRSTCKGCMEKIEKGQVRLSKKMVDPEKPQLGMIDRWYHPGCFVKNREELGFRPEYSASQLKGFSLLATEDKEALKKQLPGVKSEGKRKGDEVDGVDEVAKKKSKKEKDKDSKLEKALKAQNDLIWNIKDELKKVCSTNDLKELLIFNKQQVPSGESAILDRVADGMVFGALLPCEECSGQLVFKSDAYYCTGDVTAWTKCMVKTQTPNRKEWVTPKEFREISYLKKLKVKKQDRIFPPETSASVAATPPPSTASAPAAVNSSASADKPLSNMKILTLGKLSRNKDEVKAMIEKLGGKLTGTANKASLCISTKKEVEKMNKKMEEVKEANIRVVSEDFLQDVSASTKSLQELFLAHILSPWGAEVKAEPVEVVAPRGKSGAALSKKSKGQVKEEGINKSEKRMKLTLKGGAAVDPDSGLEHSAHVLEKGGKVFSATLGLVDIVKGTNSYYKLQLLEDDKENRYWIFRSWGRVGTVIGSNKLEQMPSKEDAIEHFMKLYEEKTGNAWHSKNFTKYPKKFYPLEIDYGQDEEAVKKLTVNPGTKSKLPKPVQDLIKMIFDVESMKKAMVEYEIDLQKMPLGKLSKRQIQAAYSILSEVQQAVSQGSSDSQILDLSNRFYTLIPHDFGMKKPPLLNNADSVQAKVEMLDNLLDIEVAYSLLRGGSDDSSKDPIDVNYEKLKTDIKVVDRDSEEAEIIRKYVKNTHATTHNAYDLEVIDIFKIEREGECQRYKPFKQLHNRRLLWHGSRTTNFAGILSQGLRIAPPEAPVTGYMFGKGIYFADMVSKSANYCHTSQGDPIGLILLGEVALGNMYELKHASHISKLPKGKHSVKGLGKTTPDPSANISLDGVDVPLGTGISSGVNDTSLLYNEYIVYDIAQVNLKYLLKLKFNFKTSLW

For `CC1C=CC(C)N1Cc1ccc(-c2nc3cccc4c3n2CCNC4=O)cc1` (racemic) [Example 243, 1-[4-(2,5-Dimethyl-2,5-dihydro-pyrrol-1-ylmethyl)-phenyl]-8,9-dihydro-7H-2,7,9a-triaza-benzo[cd]azulen-6-one], the Ki [1, 3] was 8.9 nM and the “Cytotoxicity Potentiation PF50” value [2] was 2.0.
With `O=C1NCCn2c(-c3ccccc3)nc3cccc1c32` [Example 1, 1-Phenyl-8,9-dihydro-7H-2,7,9a-triaza-benzo[cd]azulen-6-one] the “Cytotoxicity Potentiation PF50” value [2] was 1.5.
In the case of `O=C1NCCn2c(-c3ccc(F)cc3)nc3cccc1c32` [Example 2, 1-(4-Fluoro-phenyl)-8,9-dihydro-7H-2,7,9a-triaza-benzo[cd]azulen-6-one], the Ki [1, 3] is reported as 8 nM and 6 nM and the “Cytotoxicity Potentiation PF50” value [2] is reported as 1.6.
With `O=C1NCCn2c(-c3cccnc3)nc3cccc1c32` [Example 7, 1-Pyridin-3-yl-8,9-dihydro-7H-2,7,9a-triaza-benzo[cd]azulen-6-one] the Ki [1, 3] was 5.1 nM and the “Cytotoxicity Potentiation PF50” value [2] was 1.4.
In the case of `O=C1NCCn2c(-c3cccc4ccccc34)nc3cccc1c32` [Example 9, 1-Naphthalen-1-yl-8,9-dihydro-7H-2,7,9a-triaza-benzo[cd]azulen-6-one], the “Cytotoxicity Potentiation PF50” value [2] is reported as 1.4.
For `O=C1NCCn2c(-c3ccc4ccccc4c3)nc3cccc1c32` [Example 11, 1-Naphthalen-2-yl-8,9-dihydro-7H-2,7,9a-triaza-benzo[cd]azulen-6-one], the Ki [1, 3] was 5.6 nM and the “Cytotoxicity Potentiation PF50” value [2] was 2.1.
With `O=C1NCCn2c(O)nc3cccc1c32` [Example 26, 8,9-Dihydro-2H 7H-2,7,9a-triaza-benzo[cd]azulen-1,6-dione] the Ki [1, 3] was 102 nM and the “Cytotoxicity Potentiation PF50” value [2] was 1.1.
In the case of `O=C1NCCn2c(-c3ccc(F)cc3)cc3cccc1c32` [Example 37], the “Cytotoxicity Potentiation PF50” value [2] is reported as 1.8.
With `O=C1NCCn2c(-c3ccc(Cl)cc3)c(/C=N/O)c3cccc1c32` [Example 39, 6-(4-Chloro-phenyl)-1-oxo-1,2,3,4-tetrahydro-[1,4]diazepino[6,7,1-hi]indole-7-carboxaldehyde Oxime] the “Cytotoxicity Potentiation PF50” value [2] was 1.
For `O=C1NCCn2cc(/C=N/O)c3cccc1c32` [Example 46, 1-Oxo-1,2,3,4-tetrahydro-[1,4]diazepino[6,7]-hi]indole-7-carbaldehyde Oxime], the “Cytotoxicity Potentiation PF50” value [2] was 1.3.
With `Cc1c(-c2ccc(F)cc2)n2c3c(cccc13)C(=O)NCC2` [Example 50, 6-(4-Fluoro-phenyl)-7-methyl-3,4-dihydro-2H-[1,4]diazepino[6,7,1-hi]indol-1-one] the “Cytotoxicity Potentiation PF50” value [2] was 1.1.
In the case of `CN(C)Cc1ccc(-c2nc3cccc4c3n2CCNC4=O)cc1` [Example 58, 1-(4-Dimethylaminomethyl-phenyl)-8,9-dihydro-7H-2,7,9a-triaza-benzo[cd]azulen-6-one], the Ki [1, 3] is reported as 5.8 nM and the “Cytotoxicity Potentiation PF50” value [2] is reported as 2.0.
In the case of `CN(C)Cc1ccc(-c2cc3cccc4c3n2CCNC4=O)cc1` [Example 82, 6-(4-Dimethylaminomethyl-phenyl)-3,4-dihydro-2H-[1,4]diazepino[6,7,1-hi]indol-1-one], the Ki [1, 3] is reported as 6.2 nM and 6.6 nM and the “Cytotoxicity Potentiation PF50” value [2] is reported as 1.9.
With `O=C1NCCn2c(-c3ccc(F)cc3)c(/C=N/O)c3cccc1c32` [Example 90, 6-(4-Fluoro-phenyl)-1-oxo-1,2,3,4-tetrahydro-[1,4]diazepino[6,7,1-hi]indole-7-carbaldehyde oxime] the “Cytotoxicity Potentiation PF50” value [2] was 1.2.
For `O=C1NCCn2c(-c3ccc(-c4c[nH]cn4)cc3)nc3cccc1c32` [Example 147, 1-[4-(1H-Imidazol-4-yl)-phenyl]-8,9-dihydro-7H-2,7,9a-triaza-benzo[cd]azulen-6-one], the Ki [1, 3] was 4 nM and the melting point was > 198 °C (dec.).
With `CC(C)N1CCCCC1c1ccc(-c2nc3cccc4c3n2CCNC4=O)cc1` (centres unmarked) [Example 151] the Ki [1, 3] was 6.9 nM and the melting point was > 260 °C (dec.).
For `O=C1NCCn2c(-c3ccc(-c4ncc[nH]4)cc3)nc3cccc1c32` [Example 152, 1-[4-(1H-Imidazol-2-yl)-phenyl]-8,9-dihydro-7H-2,7,9a-triaza-benzo[cd]azulen-6-one], the Ki [1, 3] was 3.2 nM and the melting point was greater than 325 °C.
`NC(=S)c1c(-c2ccc(F)cc2)n2c3c(cccc13)C(=O)NCC2` [Example 153, 6-(4-Fluoro-phenyl)-1-oxo-1,2,3,4-tetrahydro-[1,4]diazepino[6,7,1-hi]indole-7-carbothioic Acid Amide] showed a Ki [1, 3] of 219 nM and a melting point of 238 to 240 °C.
With `N/C(=N\O)c1c(-c2ccc(F)cc2)n2c3c(cccc13)C(=O)NCC2` [Example 155, 6-(4-Fluoro-phenyl)-N-hydroxy-1-oxo-1,2,3,4-tetrahydro-[1,4]diazepino[6,7,1-hi]indole-7-carboxmidine] the Ki [1, 3] was 87 nM and the melting point was 257 to 259 °C.
With `CC(O)c1c(-c2ccc(F)cc2)n2c3c(cccc13)C(=O)NCC2` (centres unmarked) [Example 157, 6-(4-Fluoro-phenyl)-7-(1-hydroxy-ethyl)-3,4-dihydro-2H-[1,4]diazepino[6,7,1-hi]indol-1-one] the Ki [1, 3] was 540 nM and the melting point was 220 to 222 °C.
In the case of `O=C1NCCn2c(-c3ccc(F)cc3)c(-c3ccn[nH]3)c3cccc1c32` [Example 160, 6-(4-Fluoro-phenyl)-7-(2H-pyrazol-3-yl)-3,4-dihydro-2H-[1,4]diazepino[6,7,1-hi]indol-1-one], the Ki ([1]; Inhibition Constant Ki (nM)) is reported as 249 nM and the melting point is reported as 173 to 175 °C.
In the case of `COC(=O)CCCc1cc2cccc3c2n1CCNC3=O` [Example 161], the Ki [1, 3] is reported as 116 nM and the melting point is reported as 175 to 176 °C.
In the case of `CC(O)c1cn2c3c(cccc13)C(=O)NCC2` (centres unmarked) [Example 163, 7-(1-Hydroxy-ethyl)-3,4-dihydro-2H-[1,4]diazepino[6,7,1-hi]indol-1-one], the Ki [1, 3] is reported as 692 nM and the melting point is reported as 295 to 297 °C.
With `CC(=O)c1cn2c3c(cccc13)C(=O)NCC2` [Example 164, 7-Acetyl-3,4-dihydro-2H-[1,4]diazepino[6,7,1-hi]indol-1-one] the Ki [1, 3] was 606 nM and the melting point was 285 to 287 °C.
In the case of `O=C1NCCn2cc(C(O)c3ccccc3)c3cccc1c32` (centres unmarked) [Example 166, 7-(1-Hydroxy-1-phenyl-methyl)-3,4-dihydro-2H-[1,4]diazepino[6,7,1-hi]indol-1-one], the Ki ([1]; Inhibition Constant Ki (nM)) is reported as 380 nM and the melting point is reported as 178 to 180 °C.
With `O=C(c1ccccc1)c1cn2c3c(cccc13)C(=O)NCC2` [Example 167, 7-(1-Benzoyl)-3,4-dihydro-2H-[1,4]diazepino[6,7,1-hi]indol-1-one] the Ki [1, 3] was 337 nM and the melting point was 229 to 230 °C.
Work on `O=C1NCCn2cc(/C(=N/O)c3ccccc3)c3cccc1c32` [Example 168, 7-(1-Hydroxyimino-1-phenyl-methyl)-3,4-dihydro-2H-[1,4]diazepino[6,7,1-hi]indol-1-one] yielded a Ki ([1]; Inhibition Constant Ki (nM)) of 38 nM and a melting point of 263 to 265 °C.
For `O=C1NCCn2c(-c3ccc(CN4CC=CC4)cc3)nc3cccc1c32` [Example 171, 1-[4-(2,5-Dihydro-pyrrol-1-ylmethyl)-phenyl]-8,9-dihydro-7H-2,7,9a-triaza-benzo[cd]azulen-6-one], the Ki [1, 3] was 4.5 nM and the “Cytotoxicity Potentiation PF50” value [2] was 2.5.
In the case of `O=C1NCCn2c(-c3ccc(CN4CC=CC4)cc3)nc3cc(F)cc1c32` [Example 177, 1-[4-(2,5-Dihydro-pyrrol-1-ylmethyl)-phenyl]-4-fluoro-8,9-dihydro-7H-2,7,9a-triaza-benzo[cd]azulen-6-one], the Ki [1, 3] is reported as 4.1 nM and the “Cytotoxicity Potentiation PF50” value [2] is reported as 2.5.
For `COc1cccc(CCNCc2ccc(-c3nc4cccc5c4n3CCNC5=O)cc2)c1` [Example 184, 1-(4-{[2-(3-Methoxy-phenyl)-ethylamino]-methyl}-phenyl)-2,7,8,9-tetrahydro-2,7,9a-triaza-benzo[cd]azulen-6-one], the Ki [1, 3] was 6 nM and the “Cytotoxicity Potentiation PF50” value [2] was 2.2.
With `COc1ccc(CCNCc2ccc(-c3nc4cccc5c4n3CCNC5=O)cc2)cc1` [Example 186, 1-(4-{[2-(4-Methoxy-phenyl)-ethylamino]-methyl}-phenyl)-2,7,8,9-tetrahydro-2,7,9a-triaza-benzo[cd]azulen-6-one] the Ki [1, 3] was 5.5 nM and the “Cytotoxicity Potentiation PF50” value [2] was 2.2.
For `O=C1NCCn2c(-c3ccc(CNC4Cc5ccccc5C4)cc3)nc3cccc1c32` [Example 197, 1-[4-(Indan-2-ylaminomethyl)-phenyl]-8,9-dihydro-7H-2,7,9a-triaza-benzo[cd]azulen-6-one], the Ki [1, 3] was 2.8 nM and 5.2 nM and the “Cytotoxicity Potentiation PF50” value [2] was 2.5.
For `C[C@H]1Cn2c(-c3ccc(Cl)cc3)nc3cccc(c32)C(=O)N1` [Example 235, (S)-1-(4-Chloro-phenyl)-8-methyl-8,9-dihydro-7H-2,7,9a-triaza-benzo[cd]azulen-6-one], the Ki [1, 3] was 5.4 nM and the melting point was 244 to 246 °C.
